{"source": "ChEMBL document CHEMBL1781873", "about": "“Synthesis and antibacterial property of pyrrolopyrano quinolinones and pyrroloquinolines” (2011)", "key": {"Klebsiella pneumoniae [1]": {"system": "Klebsiella pneumoniae", "assay": "Antibacterial activity against Klebsiella pneumoniae after 18 to 20 hrs by broth micro dilution assay", "assay_type": "functional"}, "Klebsiella pneumoniae [2]": {"system": "Klebsiella pneumoniae", "assay": "Antibacterial activity against Klebsiella pneumoniae at 25 ug after 24 hrs by disc diffusion assay", "assay_type": "functional", "settings": "read-out: IZ"}, "Staphylococcus aureus [3]": {"system": "Staphylococcus aureus", "assay": "Antibacterial activity against Staphylococcus aureus at 15 ug after 24 hrs by disc diffusion assay", "assay_type": "functional", "settings": "read-out: IZ"}, "Bacillus subtilis [4]": {"system": "Bacillus subtilis", "assay": "Antibacterial activity against Bacillus subtilis at 10 ug after 24 hrs by disc diffusion assay", "assay_type": "functional", "settings": "read-out: IZ"}, "Pseudomonas aeruginosa [5]": {"system": "Pseudomonas aeruginosa", "assay": "Antibacterial activity against Pseudomonas aeruginosa at 25 ug after 24 hrs by disc diffusion assay", "assay_type": "functional", "settings": "read-out: IZ"}, "Bacillus subtilis [6]": {"system": "Bacillus subtilis", "assay": "Antibacterial activity against Bacillus subtilis at 25 ug after 24 hrs by disc diffusion assay", "assay_type": "functional", "settings": "read-out: IZ"}, "Pseudomonas aeruginosa [7]": {"system": "Pseudomonas aeruginosa", "assay": "Antibacterial activity against Pseudomonas aeruginosa at 20 ug after 24 hrs by disc diffusion assay", "assay_type": "functional", "settings": "read-out: IZ"}, "Staphylococcus aureus [8]": {"system": "Staphylococcus aureus", "assay": "Antibacterial activity against Staphylococcus aureus at 5 ug after 24 hrs by disc diffusion assay", "assay_type": "functional", "settings": "read-out: IZ"}, "Salmonella typhi [9]": {"system": "Salmonella typhi", "assay": "Antibacterial activity against Salmonella typhi at 20 ug after 24 hrs by disc diffusion assay", "assay_type": "functional, Salmonella enterica subsp. enterica serovar Typhi", "settings": "Salmonella enterica, read-out: IZ"}, "Bacillus subtilis [10]": {"system": "Bacillus subtilis", "assay": "Antibacterial activity against Bacillus subtilis at 20 ug after 24 hrs by disc diffusion assay", "assay_type": "functional", "settings": "read-out: IZ"}, "Salmonella typhi [11]": {"system": "Salmonella typhi", "assay": "Antibacterial activity against Salmonella typhi at 10 ug after 24 hrs by disc diffusion assay", "assay_type": "functional, Salmonella enterica subsp. enterica serovar Typhi", "settings": "Salmonella enterica, read-out: IZ"}, "Bacillus subtilis [12]": {"system": "Bacillus subtilis", "assay": "Antibacterial activity against Bacillus subtilis after 18 to 20 hrs by broth micro dilution assay", "assay_type": "functional"}, "Bacillus subtilis [13]": {"system": "Bacillus subtilis", "assay": "Antibacterial activity against Bacillus subtilis at 15 ug after 24 hrs by disc diffusion assay", "assay_type": "functional", "settings": "read-out: IZ"}, "Salmonella typhi [14]": {"system": "Salmonella typhi", "assay": "Antibacterial activity against Salmonella typhi at 25 ug after 24 hrs by disc diffusion assay", "assay_type": "functional, Salmonella enterica subsp. enterica serovar Typhi", "settings": "Salmonella enterica, read-out: IZ"}, "Pseudomonas aeruginosa [15]": {"system": "Pseudomonas aeruginosa", "assay": "Antibacterial activity against Pseudomonas aeruginosa at 15 ug after 24 hrs by disc diffusion assay", "assay_type": "functional", "settings": "read-out: IZ"}, "Escherichia coli [16]": {"system": "Escherichia coli", "assay": "Antibacterial activity against Escherichia coli at 15 ug after 24 hrs by disc diffusion assay", "assay_type": "functional", "settings": "read-out: IZ"}, "Klebsiella pneumoniae [17]": {"system": "Klebsiella pneumoniae", "assay": "Antibacterial activity against Klebsiella pneumoniae at 15 ug after 24 hrs by disc diffusion assay", "assay_type": "functional", "settings": "read-out: IZ"}, "Salmonella typhi [18]": {"system": "Salmonella typhi", "assay": "Antibacterial activity against Salmonella typhi at 15 ug after 24 hrs by disc diffusion assay", "assay_type": "functional, Salmonella enterica subsp. enterica serovar Typhi", "settings": "Salmonella enterica, read-out: IZ"}, "Staphylococcus aureus [19]": {"system": "Staphylococcus aureus", "assay": "Antibacterial activity against Staphylococcus aureus after 18 to 20 hrs by broth micro dilution assay", "assay_type": "functional"}, "Pseudomonas aeruginosa [20]": {"system": "Pseudomonas aeruginosa", "assay": "Antibacterial activity against Pseudomonas aeruginosa after 18 to 20 hrs by broth micro dilution assay", "assay_type": "functional"}, "Salmonella typhi [21]": {"system": "Salmonella typhi", "assay": "Antibacterial activity against Salmonella typhi after 18 to 20 hrs by broth micro dilution assay", "assay_type": "functional, Salmonella enterica subsp. enterica serovar Typhi", "settings": "Salmonella enterica"}, "Klebsiella pneumoniae [22]": {"system": "Klebsiella pneumoniae", "assay": "Antibacterial activity against Klebsiella pneumoniae at 10 ug after 24 hrs by disc diffusion assay", "assay_type": "functional", "settings": "read-out: IZ"}, "Bacillus subtilis [23]": {"system": "Bacillus subtilis", "assay": "Antibacterial activity against Bacillus subtilis at 5 ug after 24 hrs by disc diffusion assay", "settings": "read-out: IZ"}, "Staphylococcus aureus [24]": {"system": "Staphylococcus aureus", "assay": "Antibacterial activity against Staphylococcus aureus at 10 ug after 24 hrs by disc diffusion assay", "assay_type": "functional", "settings": "read-out: IZ"}, "Klebsiella pneumoniae [25]": {"system": "Klebsiella pneumoniae", "assay": "Antibacterial activity against Klebsiella pneumoniae at 20 ug after 24 hrs by disc diffusion assay", "assay_type": "functional", "settings": "read-out: IZ"}, "Escherichia coli [26]": {"system": "Escherichia coli", "assay": "Inhibition of Escherichia coli DNA gyrase assessed as inhibition of DNA supercoiling activity using pBR322 DNA as substrate at […] after 3 hrs by agarose gel electrophoresis"}, "Klebsiella pneumoniae [27]": {"system": "Klebsiella pneumoniae", "assay": "Antibacterial activity against Klebsiella pneumoniae at 5 ug after 24 hrs by disc diffusion assay", "assay_type": "functional", "settings": "read-out: IZ"}, "Pseudomonas aeruginosa [28]": {"system": "Pseudomonas aeruginosa", "assay": "Antibacterial activity against Pseudomonas aeruginosa at 5 ug after 24 hrs by disc diffusion assay", "assay_type": "functional", "settings": "read-out: IZ"}, "Pseudomonas aeruginosa [29]": {"system": "Pseudomonas aeruginosa", "assay": "Antibacterial activity against Pseudomonas aeruginosa at 10 ug after 24 hrs by disc diffusion assay", "assay_type": "functional", "settings": "read-out: IZ"}, "Salmonella typhi [30]": {"system": "Salmonella typhi", "assay": "Antibacterial activity against Salmonella typhi at 5 ug after 24 hrs by disc diffusion assay", "assay_type": "functional, Salmonella enterica subsp. enterica serovar Typhi", "settings": "Salmonella enterica, read-out: IZ"}, "Escherichia coli [31]": {"system": "Escherichia coli", "assay": "Inhibition of Escherichia coli DNA gyrase -mediated DNA relaxation using pBR322 DNA as substrate at […] after 1 hrs by agarose gel electrophoresis"}, "Escherichia coli [32]": {"system": "Escherichia coli", "assay": "Antibacterial activity against Escherichia coli at 10 ug after 24 hrs by disc diffusion assay", "assay_type": "functional", "settings": "read-out: IZ"}, "Staphylococcus aureus [33]": {"system": "Staphylococcus aureus", "assay": "Antibacterial activity against Staphylococcus aureus at 20 ug after 24 hrs by disc diffusion assay", "assay_type": "functional", "settings": "read-out: IZ"}, "Escherichia coli [34]": {"system": "Escherichia coli", "assay": "Antibacterial activity against Escherichia coli after 18 to 20 hrs by broth micro dilution assay", "assay_type": "functional"}, "Staphylococcus aureus [35]": {"system": "Staphylococcus aureus", "assay": "Antibacterial activity against Staphylococcus aureus at 25 ug after 24 hrs by disc diffusion assay", "assay_type": "functional", "settings": "read-out: IZ"}}, "note": "Active and inactive are the calls of the source. The calls are words filed in the database; no cut-off is given here."}
{"smiles": "O=C(O)c1cn(C2CC2)c2cc(N3CCNCC3)c(F)cc2c1=O", "note": "[CIPROFLOXACIN]", "values": [{"measurement": "MIC50", "setting": "Klebsiella pneumoniae [1]", "result": 0.5, "unit": "µg/mL"}, {"measurement": "MIC90", "setting": "Klebsiella pneumoniae [1]", "result": 1, "unit": "µg/mL"}, {"measurement": "zone of inhibition at 25 µg/disc", "setting": "Klebsiella pneumoniae [2]", "result": 36, "unit": "mm"}, {"measurement": "zone of inhibition at 15 µg/disc", "setting": "Staphylococcus aureus [3]", "result": 26, "unit": "mm"}, {"measurement": "zone of inhibition at 10 µg/disc", "setting": "Bacillus subtilis [4]", "result": 7, "unit": "mm"}, {"measurement": "zone of inhibition at 25 µg/disc", "setting": "Pseudomonas aeruginosa [5]", "result": 23, "unit": "mm"}, {"measurement": "zone of inhibition at 25 µg/disc", "setting": "Bacillus subtilis [6]", "result": 12, "unit": "mm"}, {"measurement": "zone of inhibition at 20 µg/disc", "setting": "Pseudomonas aeruginosa [7]", "result": 20, "unit": "mm"}, {"measurement": "zone of inhibition at 5 µg/disc", "setting": "Staphylococcus aureus [8]", "result": 22, "unit": "mm"}, {"measurement": "zone of inhibition at 20 µg/disc", "setting": "Salmonella typhi [9]", "result": 22, "unit": "mm"}, {"measurement": "zone of inhibition at 20 µg/disc", "setting": "Bacillus subtilis [10]", "result": 10, "unit": "mm"}, {"measurement": "zone of inhibition at 10 µg/disc", "setting": "Salmonella typhi [11]", "result": 16, "unit": "mm"}, {"measurement": "MIC50", "setting": "Bacillus subtilis [12]", "result": 0.5, "unit": "µg/mL"}, {"measurement": "MIC90", "setting": "Bacillus subtilis [12]", "result": 1, "unit": "µg/mL"}, {"measurement": "zone of inhibition at 15 µg/disc", "setting": "Bacillus subtilis [13]", "result": 9, "unit": "mm"}, {"measurement": "zone of inhibition at 25 µg/disc", "setting": "Salmonella typhi [14]", "result": 24, "unit": "mm"}, {"measurement": "zone of inhibition at 15 µg/disc", "setting": "Pseudomonas aeruginosa [15]", "result": 16, "unit": "mm"}, {"measurement": "zone of inhibition at 15 µg/disc", "setting": "Escherichia coli [16]", "result": 18, "unit": "mm"}, {"measurement": "zone of inhibition at 15 µg/disc", "setting": "Klebsiella pneumoniae [17]", "result": 30, "unit": "mm"}, {"measurement": "zone of inhibition at 15 µg/disc", "setting": "Salmonella typhi [18]", "result": 18, "unit": "mm"}, {"measurement": "MIC50", "setting": "Staphylococcus aureus [19]", "result": 0.5, "unit": "µg/mL"}, {"measurement": "MIC90", "setting": "Staphylococcus aureus [19]", "result": 1, "unit": "µg/mL"}, {"measurement": "MIC50", "setting": "Pseudomonas aeruginosa [20]", "result": 0.5, "unit": "µg/mL"}, {"measurement": "MIC90", "setting": "Pseudomonas aeruginosa [20]", "result": 1, "unit": "µg/mL"}, {"measurement": "MIC50", "setting": "Salmonella typhi [21]", "result": 0.5, "unit": "µg/mL"}, {"measurement": "MIC90", "setting": "Salmonella typhi [21]", "result": 1, "unit": "µg/mL"}, {"measurement": "zone of inhibition at 10 µg/disc", "setting": "Klebsiella pneumoniae [22]", "result": 26, "unit": "mm"}, {"measurement": "zone of inhibition at 5 µg/disc", "setting": "Bacillus subtilis [23]", "result": 6, "unit": "mm"}, {"measurement": "zone of inhibition at 10 µg/disc", "setting": "Staphylococcus aureus [24]", "result": 24, "unit": "mm"}, {"measurement": "zone of inhibition at 20 µg/disc", "setting": "Klebsiella pneumoniae [25]", "result": 34, "unit": "mm"}, {"measurement": "DNA gyrase inhibition (active/inactive)", "setting": "Escherichia coli [26]", "result": "Active"}, {"measurement": "zone of inhibition at 5 µg/disc", "setting": "Klebsiella pneumoniae [27]", "result": 24, "unit": "mm"}, {"measurement": "zone of inhibition at 5 µg/disc", "setting": "Pseudomonas aeruginosa [28]", "result": 12, "unit": "mm"}, {"measurement": "zone of inhibition at 10 µg/disc", "setting": "Pseudomonas aeruginosa [29]", "result": 14, "unit": "mm"}, {"measurement": "zone of inhibition at 5 µg/disc", "setting": "Salmonella typhi [30]", "result": 14, "unit": "mm"}, {"measurement": "inhibition", "setting": "Escherichia coli [31]", "result": "Active"}, {"measurement": "zone of inhibition at 10 µg/disc", "setting": "Escherichia coli [32]", "result": 16, "unit": "mm"}, {"measurement": "zone of inhibition at 20 µg/disc", "setting": "Staphylococcus aureus [33]", "result": 30, "unit": "mm"}, {"measurement": "MIC90", "setting": "Escherichia coli [34]", "result": 1, "unit": "µg/mL"}, {"measurement": "zone of inhibition at 25 µg/disc", "setting": "Staphylococcus aureus [35]", "result": 36, "unit": "mm"}]}
